Measured values as given in ChEMBL document CHEMBL5143540, “Design, synthesis and biological evaluation of nitrofuran-1,3,4-oxadiazole hybrids as new antitubercular agents” (Bioorg Med Chem, 2022).
Values after ≈ are worked out from the molar mass of the structure shown.

Assays:
[1] = tested on: Mycobacterium tuberculosis; test: Antitubercular activity against Mycobacterium tuberculosis H37Ra ATCC 25177 assessed as reduction in bacterial growth incubated for 7 days by Alamar blue assay; format: functional; conditions: H37Ra ATCC 25177, 168 h, time 7 day
[2] = MRT in ICR mouse at 25 mg/kg, po measured upto 24 hrs by HPLC analysis; format: ADME, organism-based; conditions: in vivo
[3] = Half life in ICR mouse at 25 mg/kg, po measured upto 24 hrs by HPLC analysis; format: ADME, organism-based; conditions: in vivo
[4] = AUC(0 to infinity) in ICR mouse at 25 mg/kg, po measured upto 24 hrs by HPLC analysis; format: ADME, organism-based; parameters: dose 25 mg/kg, time < 24 hrs, route po; conditions: in vivo
[5] = Cytotoxicity against african green monkey Vero cells assessed as reduction in cell viability after 72 hrs by MTT assay; format: toxicity, cell-based; conditions: chlorocebus sabaeus
[6] = Volume of distribution in ICR mouse at 25 mg/kg, po measured upto 24 hrs by HPLC analysis; format: ADME, organism-based; conditions: in vivo
[7] = Clearance in ICR mouse at 25 mg/kg, po measured upto 24 hrs by HPLC analysis; format: ADME, organism-based; conditions: in vivo
[8] = Cmax in ICR mouse at 25 mg/kg, po measured upto 24 hrs by HPLC analysis; format: ADME, organism-based; parameters: dose 25 mg/kg, time < 24 hrs, route po; conditions: in vivo
[9] = Tmax in ICR mouse at 25 mg/kg, po measured upto 24 hrs by HPLC analysis; format: ADME, organism-based; conditions: in vivo
[10] = molecular target: Voltage-gated inwardly rectifying potassium channel KCNH2 (Homo sapiens, UniProt Q12809); test: Inhibition of human ERG expressed in HEK293 cells by whole cell electrophysiology assay; format: toxicity, cell-based
[11] = molecular target: hERG (KCNH2) (Homo sapiens, UniProt Q12809); test: Inhibition of human ERG expressed in HEK293 cells at 10 uM by whole cell electrophysiology assay relative to control; format: toxicity, cell-based; conditions: HEK293 cells expressing hERG
hERG (KCNH2), sequence (Q12809 whole entry): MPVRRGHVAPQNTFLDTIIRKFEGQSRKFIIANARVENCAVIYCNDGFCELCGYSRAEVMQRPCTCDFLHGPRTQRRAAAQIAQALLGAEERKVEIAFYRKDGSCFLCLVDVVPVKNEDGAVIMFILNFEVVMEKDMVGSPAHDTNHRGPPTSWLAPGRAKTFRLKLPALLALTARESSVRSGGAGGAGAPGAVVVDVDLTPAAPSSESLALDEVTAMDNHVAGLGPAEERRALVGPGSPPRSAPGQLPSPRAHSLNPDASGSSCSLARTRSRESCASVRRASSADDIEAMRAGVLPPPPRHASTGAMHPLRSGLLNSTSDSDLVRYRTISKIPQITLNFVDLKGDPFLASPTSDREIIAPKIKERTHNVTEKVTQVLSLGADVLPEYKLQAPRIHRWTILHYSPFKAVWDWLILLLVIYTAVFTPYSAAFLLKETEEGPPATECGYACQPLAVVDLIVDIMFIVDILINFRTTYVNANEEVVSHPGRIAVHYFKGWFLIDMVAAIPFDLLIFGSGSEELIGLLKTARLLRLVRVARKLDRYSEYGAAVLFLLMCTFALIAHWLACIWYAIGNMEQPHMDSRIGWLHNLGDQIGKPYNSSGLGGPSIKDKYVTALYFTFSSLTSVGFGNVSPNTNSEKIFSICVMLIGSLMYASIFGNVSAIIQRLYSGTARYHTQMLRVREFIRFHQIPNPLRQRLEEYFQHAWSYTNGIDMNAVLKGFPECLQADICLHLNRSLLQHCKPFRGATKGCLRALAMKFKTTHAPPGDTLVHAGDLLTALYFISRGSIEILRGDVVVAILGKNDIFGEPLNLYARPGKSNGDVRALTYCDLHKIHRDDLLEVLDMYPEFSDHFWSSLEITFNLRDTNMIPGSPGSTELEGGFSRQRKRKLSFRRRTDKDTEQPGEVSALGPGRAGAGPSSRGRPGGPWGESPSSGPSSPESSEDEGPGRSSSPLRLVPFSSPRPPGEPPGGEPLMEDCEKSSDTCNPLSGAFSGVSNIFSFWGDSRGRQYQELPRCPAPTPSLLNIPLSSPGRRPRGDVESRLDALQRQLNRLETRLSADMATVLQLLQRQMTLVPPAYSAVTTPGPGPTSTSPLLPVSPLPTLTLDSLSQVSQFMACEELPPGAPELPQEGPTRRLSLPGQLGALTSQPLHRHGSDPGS

Voltage-gated inwardly rectifying potassium channel KCNH2, sequence (Q12809 whole entry): as above

`O=C(Nc1nnc(-c2ccc(Cl)cc2)o1)c1ccc([N+](=O)[O-])o1` showed an MIC [1] of 0.937 µg/mL (≈ 2.8 µM).
Compound `COc1ccc(-c2nnc(CNC(=O)c3ccc([N+](=O)[O-])o3)o2)cc1` has an MIC [1] of 7.07 µg/mL (≈ 20.5 µM).
In the case of `O=[N+]([O-])c1ccc(-c2nnc(-c3ccc(C(F)(F)F)cc3)o2)o1`, the MIC [1] is reported as 0.125 µg/mL (≈ 0.384 µM).
For `O=[N+]([O-])c1ccc(-c2nnc(C3CCCO3)o2)o1` (configuration not stated), the MIC [1] was 2 µg/mL (≈ 7.96 µM).
With `O=C(NCc1nnc(-c2ccccc2)o1)c1ccc([N+](=O)[O-])o1` the MIC [1] was 2.43 µg/mL (≈ 7.74 µM).
`CCC(CC)c1nnc(-c2ccc([N+](=O)[O-])o2)o1` showed an MIC [1] of 0.911 µg/mL (≈ 3.63 µM).
In the case of `O=C(Nc1nnc(C2CCCO2)o1)c1ccc([N+](=O)[O-])o1` (configuration not stated), the MIC [1] is reported as 0.007 µg/mL (≈ 0.0238 µM).
With `O=[N+]([O-])c1ccc(-c2nnc(-c3ccccc3)o2)o1` the MIC [1] was 1.59 µg/mL (≈ 6.17 µM).
In the case of `COc1ccc(-c2nnc(-c3ccc([N+](=O)[O-])o3)o2)cc1`, the MIC [1] is reported as 0.475 µg/mL (≈ 1.65 µM).
For `CC(C)(C)c1ccc(-c2nnc(CNC(=O)c3ccc([N+](=O)[O-])o3)o2)cc1`, the MRT [2] was 55.2 min, the half-life [3] was 40.2 min and the AUC(0-inf) [4] was 99.3 ng·h/mL. The CC50 at 72 h [5] was 3.62 µg/mL (≈ 9.79 µM), the Vd [6] was 227 L/kg and the CL/F [7] was 4600 mL/min/kg. For the same compound, the MIC [1] was 4.83 µg/mL (≈ 13 µM), the Cmax [8] was 139 ng/mL and the Tmax [9] was 15 min.
With `CC(C)(C)c1ccc(-c2nnc(NC(=O)c3ccc([N+](=O)[O-])o3)o2)cc1` the MIC [1] was over 16 µg/mL.
With `CC(C)(C)c1ccc(-c2nnc(-c3ccc([N+](=O)[O-])o3)o2)cc1` the MIC [1] was 0.06 µg/mL (≈ 0.192 µM).
In the case of `O=C(Nc1nnc(-c2ccccn2)o1)c1ccc([N+](=O)[O-])o1`, the MIC [1] is reported as 0.03 µg/mL (≈ 0.0996 µM).
Compound `O=C(NCc1nnc(-c2ccc(OC(F)(F)F)cc2)o1)c1ccc([N+](=O)[O-])o1` has a CC50 at 72 h [5] of 3.48 µg/mL (≈ 8.74 µM) and an MIC [1] of 9.86 µg/mL (≈ 24.8 µM).
`O=[N+]([O-])c1ccc(-c2nnc(-c3ccc(OC(F)(F)F)cc3)o2)o1` showed an MIC [1] of 0.178 µg/mL (≈ 0.522 µM).
Work on `O=C(Nc1nnc(C2CCCCC2)o1)c1ccc([N+](=O)[O-])o1` yielded an MIC [1] of 0.025 µg/mL (≈ 0.0816 µM).
In the case of `O=C(Nc1nnc(-c2ccncc2)o1)c1ccc([N+](=O)[O-])o1`, the MIC [1] is reported as 0.038 µg/mL (≈ 0.126 µM).
In the case of `CC(C)c1nnc(-c2ccc([N+](=O)[O-])o2)o1`, the MIC [1] is reported as 0.709 µg/mL (≈ 3.18 µM).
`O=C(Nc1nnc(-c2ccc(Br)cc2)o1)c1ccc([N+](=O)[O-])o1` showed an MRT [2] of 382 min, a half-life [3] of 270 min and an AUC(0-inf) [4] of 110000 ng·h/mL. For the same compound, the IC50 [10] was over 10 µM, the CC50 at 72 h [5] was 57.3 µg/mL (≈ 151 µM) and the Vd [6] was 1.46 L/kg. It also gave an inhibition at 10 µM [11] of 11.3%, a CL/F [7] of 3.79 mL/min/kg and an MIC [1] of 0.795 µg/mL (≈ 2.1 µM). It also gave a Cmax [8] of 15800 ng/mL and a Tmax [9] of 15 min.
Work on `O=[N+]([O-])c1ccc(-c2nnc(-c3ccc(Br)cc3)o2)o1` yielded an MIC [1] of 0.597 µg/mL (≈ 1.78 µM).
`O=[N+]([O-])c1ccc(-c2nnc(C3CCCCC3)o2)o1` gave an MIC [1] of 1.97 µg/mL (≈ 7.47 µM).
For `O=C(NCc1nnc(-c2ccc(C(F)(F)F)cc2)o1)c1ccc([N+](=O)[O-])o1`, the CC50 at 72 h [5] was 3.56 µg/mL (≈ 9.32 µM) and the MIC [1] was 3.73 µg/mL (≈ 9.75 µM).
`COc1ccc(Cc2nnc(NC(=O)c3ccc([N+](=O)[O-])o3)o2)cc1` gave an MIC [1] of 0.02 µg/mL (≈ 0.0581 µM).
In the case of `COc1ccc(-c2nnc(NC(=O)c3ccc([N+](=O)[O-])o3)o2)cc1`, the MIC [1] is reported as 0.191 µg/mL (≈ 0.578 µM).
Compound `O=C(Nc1nnc(-c2cccnc2)o1)c1ccc([N+](=O)[O-])o1` has an MIC [1] of 0.037 µg/mL (≈ 0.123 µM).
With `O=C(Nc1nnc(-c2ccc(F)cc2)o1)c1ccc([N+](=O)[O-])o1` the MIC [1] was 2.47 µg/mL (≈ 7.77 µM).
Compound `O=C(Nc1nnc(-c2ccc(C(F)(F)F)cc2)o1)c1ccc([N+](=O)[O-])o1` has an MIC [1] of 0.999 µg/mL (≈ 2.71 µM).
For `O=C(Nc1nnc(-c2ccc(OC(F)(F)F)cc2)o1)c1ccc([N+](=O)[O-])o1`, the MIC [1] was 1.23 µg/mL (≈ 3.2 µM).
`NNC(=O)c1ccncc1` [ISONIAZID] gave an MIC [1] of over 16 µg/mL.
For `O=c1nc(N2CCN(CC3CCCCC3)CC2)sc2c([N+](=O)[O-])cc(C(F)(F)F)cc12` [MACOZINONE], the Vd [6] was 56.8 L/kg and the CL/F [7] was 279 mL/min/kg.
Work on `CO[C@H]1/C=C/O[C@@]2(C)Oc3c(C)c(O)c4c(O)c(c(/C=N/N5CCN(C)CC5)c(O)c4c3C2=O)NC(=O)/C(C)=C\C=C\[C@H](C)[C@H](O)[C@@H](C)[C@@H](O)[C@@H](C)[C@H](OC(C)=O)[C@@H]1C` [RIFAMPIN] yielded an MIC [1] of over 16 µg/mL.
